The values below come from patent publication US20090253662A1, “GENETIC RISK ASSESSMENT IN HEART FAILURE: IMPACT OF GENETIC VARIATION OF ALDOSTERONE SYNTHASE PROMOTER POLYMORPHISM” (NitroMed, Inc., priority 2005, published 2009).

In data set [1] the test system is post myocardial infarction. Conditions: addition post myocardial infarction; cited from earlier work.
For data set [2], the system named is black cohorts with hypertension. To be noted: cited from earlier work.
The conditions of data set [3]: cited from earlier work.
For data set [4], the system named is subjects with severe heart failure. Conditions: addition of spironolactone; cited from earlier work.
The test system of data set [5] is African American subjects with heart failure. The data set can be described thus: Left ventricular remodeling by transthoracic echocardiography at baseline and six months. The class given is in vivo, human. On the procedure: Subjects were followed to an endpoint of death or heart failure hospitalization. Quality of Life Assessment was performed by the Minnesota Living with Heart Failure Questionnaire at baseline and at the six month visit. Left ventricular function was assessed transthoracic echocardiography at baseline and six months. The primary endpoint for A-HeFT was a composite weighted score with three components: mortality, heart failure hospitalization and change in quality of life. Left ventricular remodeling was investigated in a subset of A-HeFT subjects by transthoracic echocardiography at baseline and at six months. Event free survival was compared by genotype class by Kaplan-Meier log rank analysis, using a linear model that predicts an intermediate phenotype for heterozygotes. Continuous variables such as composite scores were compared by genotype class by linear ANOVA. For the interaction of aldosterone genotype and the impact of therapy, outcomes analyzed by genotype were compared first overall and then separately by treatment subset, fixed combination of isosorbide dinitrate and hydralazine versus placebo.

The structures appear in SMILES notation. Counter-ions that a name gives are not always drawn.

`COC(=O)[C@@H]1CC2=CC(=O)CC[C@]2(C)[C@@]23O[C@@H]2C[C@@]2(C)[C@@H](CC[C@@]24CCC(=O)O4)[C@H]13` [eplerenone]: the survival result in data set [1] is recorded as “improves survival”. In addition, the “effectiveness versus angiotensin II antagonists” value in data set [2] was “more effective than angiotensin II antagonists”.
On to `NNc1nncc2ccccc12` [Hydralazine hydrochloride, hydralazine hydrochloride], for which the solubility in alcohol entry in data set [3] (alcohol) was “slightly soluble”. Besides, in data set [3] (ether), the solubility in ether entry is “very slightly soluble”. For the same molecule, the solubility in water result in data set [3] was “soluble”.
As to `CC(=O)S[C@@H]1CC2=CC(=O)CC[C@]2(C)[C@H]2CC[C@@]3(C)[C@@H](CC[C@@]34CCC(=O)O4)[C@H]12` [spironolactone], in data set [4], the survival result is recorded as “improved survival”. The “Left Ventricular Diastolic Diameter (LVDD) at 6 Months” value came out at 6.5 ± 0.8 cm in data set [5] (-344 CC genotype), 6.3 ± 1.5 cm in data set [5] (-344 TC genotype) and 6.2 ± 1.4 cm in data set [5] (-344 TT genotype). Also, the “Left Ventricular Ejection Fraction (LVEF) at 6 Months” value in data set [5] (-344 CC genotype) was determined as 32 ± 6%.
Regarding `O=[N+]([O-])O[C@H]1CO[C@H]2[C@@H]1OC[C@H]2O[N+](=O)[O-]` [isosorbide dinitrate, 1,4,3,6-dianhydro-D-glucitol-2,5-dinitrate], the “solubility in organic solvents” value in data set [3] (organic solvents such as ethanol, ether and chloroform) was “freely soluble”. In addition, in data set [3], the solubility in water entry was “sparingly soluble”.
